Measured values: article PMC6895199, “A new antiviral scaffold for human norovirus identified with computer-aided approaches on the viral polymerase” (Scientific Reports, 2019)
Read-outs that look alike come from different tables or passages of the source.

System: HuNoV GI.1 replicon
Test: HuNoV GI replicon assay (HGT-NV cells, qRT-PCR)
Format: cell-based, human norovirus GI.1
Experimental: Given that in this system the gene encoding for the major capsid protein is replaced by a neomycin resistance gene, no new virus particles will be produced but the non-structural proteins are expressed and the replication of the genomic RNA can be studied.
Cells and virus: MNV (virus strain MNV-1.CW1) was propagated in RAW 264.7 cells grown in DMEM (Life Technologies, Gent, Belgium) supplemented with 10% or 2% FBS, 2 mM L-glutamine, 20 mM HEPES, 0.075 g/L sodium bicarbonate, 1 mM sodium pyruvate, 100 U penicillin/mL and 100 µg/mL streptomycin at 37 °C in a humidified atmosphere of 5% CO2. The human norovirus GI.1 replicon harboring gastric tumor-1 cell line (HGT-NV) (kindly provided by Dr. Ian Goodfellow, University of Cambridge) was maintained in DMEM supplemented with 10% FBS, 2mM L-glutamine, 0.075 g/L sodium bicarbonate and 1.0 mg/ml of Geneticin (G418; Life Technologies), at 37 °C in a humidified atmosphere of 5% CO2[34].
Antiviral assay with the HGT-NV replicon: The inhibitory effect of Compounds on human norovirus replication was assessed by quantification of the levels of HuNoV GI replicon RNA and of the reference (housekeeping) gene β-actin mRNA [by quantitative reverse transcription polymerase chain reaction (qRT-PCR)]. To this end, HGT cells (2000 cells/well) were seeded in 96-well plates, in complete DMEM without the selection marker G418. Following an incubation period of 24 h, a serial dilution of rupintrivir was added to the cultures. After 72 h of incubation, cell monolayers were washed with phosphate-buffered saline (PBS) and collected for quantification of RNA load by qRT-PCR. Intracellular RNA was extracted from cells using the cell-to-cDNA lysis buffer (Ambion, Life Technologies). For detection of HuNoV GI replicon RNA, forward (5′-CCG GCT ACC TGC CCA TTC-3′), reverse (5′-CCAGATCATCCTGATCGACAAG-3′) primers and probe (5′-FAM-ACATCGCATCGAGCGAGCACGTAC-TAMRA-3′) for the neomycin gene were used. For detection of β-actin mRNA, forward (5′-GGCATCCACGAAACTACCTT-3′), reverse (5′-AGCACTGTGTTGGCGTACAG-3′) primers and probe (5′-HEX-ATCATGAAGTGTGACGTGGACATCCG-BHQ1–3′) were used. One-step qRT-PCR was performed in a 20 µL reaction mixture containing 10 µl 2X iTaq Universal SYBR® Green one step reaction mix (Bio-rad, California, USA), 5.17 µl RNAse free water, 0.5 µl of iScript reverse transcriptase (Bio-rad, California, USA), 4 µl of the template RNA and either 300 nM of HuNoV GI replicon primers and probe, 300 nM of β-actin primers and 200 nM of probe. Cycling conditions were: reverse transcription at 50 °C for 10 min, initial denaturation at 95 °C for 3 min, followed by 40 cycles of denaturation at 95 °C for 15 s, annealing and extension at 60 °C for 30 seconds (Roche Lightcycler®96, Roche Diagnostics, Belgium). To determine the relative expression levels of HuNoV GI replicon RNA, β-actin was used as a normalizer and ratios were calculated using the Pfaffl method. The Expression Ratio (HuNoV GI Replicon/β-actin) was calculated as: Expression Ratio = (E HuNoV)^ΔCT, HuNoV (CC – TC)/(Eβ-actin)^ΔCT, β-actin (CC – TC), where E HuNoV and Eβ-actin represent the amplification efficiency (E = 10^–1/slope) for the HuNoV GI replicon and β-actin qRT-PCR reactions, respectively. ΔCT, HuNoV (CC – TC) is the Ct of untreated control cells (CC) minus the Ct of cells treated with a compound concentration (TC) obtained with HuNoV GI replicon primers and probe. ΔCT, β-actin (CC – TC) is the Ct of untreated control cells (CC) minus the Ct of cells treated with a compound concentration (TC) obtained with β-actin primers and probe. Efficiency values (E HuNoV and Eβ-actin) were determined for each qRT-PCR reaction.

[1] = HuNoV GI replicon in HGT-1 cells, 72 h, replicon RNA by qRT-PCR
[2] = Norwalk virus, HGT-1, 72 h, read-out: EC50 values (column head printed 'M'), HuNoV GI replicon in HGT-1 cells, replicon RNA by qRT-PCR

In the case of `O=C(NC(=S)Nc1ccc(N2CCN(C(=O)c3cccs3)CC2)cc1)c1sc2ccccc2c1Cl` [Compound 48, 3-Chloro-N-((4-(4-(thiophene-2-carbonyl)piperazin-1-yl)phenyl)carbamothioyl)benzo[b]thiophene-2-carboxamide, reference compound], the “EC50 values (column head printed 'M')” value [1] is reported as “do not display any significant antiviral activity” and the EC50 [2] is reported as greater than 100 µM.
With `Cc1ccc(C(=O)NC(=S)Nc2ccc(N3CCN(C(=O)c4cccs4)CC3)cc2)cc1` [Compound 52, 4-Methyl-N-((4-(4-(thiophene-2-carbonyl)piperazin-1-yl)phenyl)carbamothioyl)benzamide] the “EC50 values (column head printed 'M')” value [1] was “low micromolar range”, the EC50 [2] was 6 µM and the EC50 (read-out: EC50 values (column head printed 'M'), HuNoV GI replicon in HGT-1 cells, 72 h, replicon RNA by qRT-PCR) was 6.1 ± 3.9 µM.
With `O=C(NC(=S)Nc1ccc(N2CCN(C(=O)c3nccs3)CC2)cc1)c1sc2ccccc2c1Cl` [Compound 56, 3-Chloro-N-((4-(4-(thiazole-2-carbonyl)piperazin-1-yl)phenyl)carbamothioyl)benzo[b]thiophene-2-carboxamide] the “EC50 values (column head printed 'M')” value [1] was “do not display any significant antiviral activity” and the EC50 [2] was greater than 100 µM.
